The record followed here is ChEMBL document CHEMBL5236546, “Potent and Subtype-Selective Dopamine D2 Receptor Biased Partial Agonists Discovered via an Ugi-Based Approach” (J Med Chem, 2021).

One experiment has as its target D(2) dopamine receptor (Homo sapiens, UniProt P14416).
The next experiment deals with T1, D(4) dopamine receptor (Homo sapiens, UniProt P21917).
T1 sequence (P21917 whole entry): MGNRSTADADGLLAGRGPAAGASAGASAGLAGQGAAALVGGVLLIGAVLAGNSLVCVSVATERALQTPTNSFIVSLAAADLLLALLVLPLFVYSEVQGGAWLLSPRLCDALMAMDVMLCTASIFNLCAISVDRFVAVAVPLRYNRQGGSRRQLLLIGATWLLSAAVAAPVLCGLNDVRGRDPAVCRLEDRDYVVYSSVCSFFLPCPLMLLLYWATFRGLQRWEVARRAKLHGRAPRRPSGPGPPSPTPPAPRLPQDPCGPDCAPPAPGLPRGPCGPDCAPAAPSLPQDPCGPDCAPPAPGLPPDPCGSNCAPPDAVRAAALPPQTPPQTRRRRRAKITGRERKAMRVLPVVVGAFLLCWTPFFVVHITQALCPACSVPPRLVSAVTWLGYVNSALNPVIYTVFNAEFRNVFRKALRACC

The next experiment concerns the target D(3) dopamine receptor (Homo sapiens, UniProt P35462).

Sequence of D(3) dopamine receptor (P35462 whole entry): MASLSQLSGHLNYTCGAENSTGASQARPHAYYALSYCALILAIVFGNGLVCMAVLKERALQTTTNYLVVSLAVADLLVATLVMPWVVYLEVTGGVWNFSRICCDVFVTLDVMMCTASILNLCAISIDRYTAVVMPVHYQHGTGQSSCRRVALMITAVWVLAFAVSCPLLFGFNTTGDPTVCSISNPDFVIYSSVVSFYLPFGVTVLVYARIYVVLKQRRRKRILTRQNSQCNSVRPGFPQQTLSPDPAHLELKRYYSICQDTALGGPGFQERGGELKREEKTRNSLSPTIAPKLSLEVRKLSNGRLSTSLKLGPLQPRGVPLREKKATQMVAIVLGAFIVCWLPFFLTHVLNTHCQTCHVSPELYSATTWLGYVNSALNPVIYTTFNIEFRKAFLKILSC
Sequence of D(2) dopamine receptor (P14416 whole entry): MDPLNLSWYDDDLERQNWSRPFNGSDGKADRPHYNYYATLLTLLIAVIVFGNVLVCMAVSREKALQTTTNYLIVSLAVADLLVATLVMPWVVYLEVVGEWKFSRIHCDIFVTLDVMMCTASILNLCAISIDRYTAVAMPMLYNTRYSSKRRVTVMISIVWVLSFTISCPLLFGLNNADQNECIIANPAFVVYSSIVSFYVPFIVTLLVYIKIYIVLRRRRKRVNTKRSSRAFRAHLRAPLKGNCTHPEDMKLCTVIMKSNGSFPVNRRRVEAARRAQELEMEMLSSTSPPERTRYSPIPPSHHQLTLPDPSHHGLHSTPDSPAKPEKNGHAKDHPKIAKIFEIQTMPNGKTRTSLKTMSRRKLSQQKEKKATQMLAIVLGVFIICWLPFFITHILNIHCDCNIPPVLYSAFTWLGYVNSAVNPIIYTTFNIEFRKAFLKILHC
Description for D(2) dopamine receptor: Partial agonist activity at D2 receptor (unknown origin) assessed as increase in cAMP accumulation
Description for D(3) dopamine receptor: Partial agonist activity at human D3 receptor assessed as inhibition constant
Description for D(4) dopamine receptor: Partial agonist activity at human D4 receptor assessed as inhibition constant

For `Cn1ccc2c(N3CCN(CCCCOc4ccc5c(c4)NC(=O)CC5)CC3)cccc21`, the EC50 entry on D(2) dopamine receptor is on record as “Not Active”.

For the compound `CC1Cc2ccccc2N1C(=O)NCCCCN(C)[C@H]1Cc2cccc3[nH]c(=O)n(c23)C1` (some centres undefined), the inhibitory constant (Ki) result at D(4) dopamine receptor was “Not Active”; on D(3) dopamine receptor it was 139 nM. Turning to `CN(C)C(=O)N[C@H]1CC[C@H](CCN2CCN(c3cccc(Cl)c3Cl)CC2)CC1` [CARIPRAZINE], the Ki entry on D(4) dopamine receptor is listed as “Not Active”.
